# In article PMC2150313 (British Journal of Cancer, 1998):
# Where two headings read alike, the source gives them in different places.
# Assays:
# [1] = Rat pharmacokinetics: plasma 4-OH-IF and chloroacetaldehyde after i.v. IF, with P450 inducer/inhibitor pretreatment
# Description: British Joumal of Cancer (1998) 77(11), 1768-1776 ? […] Both reactions are catalysed by multiple liver P450 enzymes in vitro in isolated rat liver microsomes. […] The identification of those P450s that contribute specifically to these individual meta- bolic pathways is of particular interest, given the large degree of interindividual differences in the catalytic activities of specific P450s seen in human liver samples (Shimada et al, 1994). […] This complexation, in turn, results in an inhibition of these P450s. Inhibition of P450 2B 1 by non-covalent interaction with the haem ligand metyrapone (MTP) has also been reported (Waxman and Walsh, 1983; Halpert, 1995). […] MTP and other specialty chemi- cals were of the highest grade commercially available and were obtained from Aldrich Chemical (Milwaukee, WI, USA). Animals Male Fischer 344 rats (160-250 g; 7-11 weeks of age) were purchased from Taconic (Germantown, NY, USA). Animals were maintained in individual plastic cages under conditions of constant temperature (22?C), lighting (12-h dark-light cycle) and humidity, and provided with food and water ad libitum, in accordance with the National Institutes of Health Guide for the Care and Use of Laboratory Animals. Rat pharmacokinetics Surgery For kinetic studies, rats were implanted with an indwelling cannula (silicone medical grade/polyethylene tubing) in the right jugular vein to allow blood sampling and drug administration. Surgery was performed under ketamine (Ketaset 95 mg kg-') and xylazine (Rompun 12 mg kg-') anaesthesia 3-4 days before the kinetic experiment. After cannulation, a Rodent Infusion Set obtained from Lomin (Quebec, Canada) was used to withdraw blood samples at appropriate time intervals. Catheters were flushed daily with heparinized saline (20 U ml-') to prevent clotting. […] The sample was then diluted in 0.9% saline to the final required volume and the pH adjusted to pH 4 with 1 M sodium hydroxide. […] At each time point, the rats were given an injection of 0.5 ml of 0.9% saline through the catheter to replace the volume of blood withdrawn. […] Data shown at each pharmacokinetic sampling point are means ? s.d. values. […] Plasma samples (100 gl of supematant) were removed and stored at -80?C until analysis. Plasma proteins were precipitated by successive addition of 40 gl of ice-cold 5.5% (w/v) zinc sulphate, 40 gl of ice-cold saturated barium hydroxide and 20 gl of ice-cold 0.01 M hydrochloric acid. Samples were centrifuged for 15 min at 16 000 g, and 125 gl of the supernatant was added to 67 gl of a solution containing 6 mg of 3-amino- phenol and 6 mg of hydroxylamine hydrochloride dissolved in 1 ml of 1 M hydrochloric acid. Samples were heated at 90?C for 30 min in the dark, then allowed to cool to room temperature and diluted with 408 pl of distilled water before reading the fluores- cence (350 nm excitation and 515 nm emission) on a Shimadzu RF15 spectrofluorophotometer. […] CA present in the plasma samples was derivatized with thiourea to produce 2-aminothiazole, which was assayed by high-performance liquid chromatography (HPLC) after solid- phase extraction by a modification of published methods (Yu and Waxman, 1996). Briefly, a 208-gl aliquot of heparinized blood was immediately mixed with 1 mm formaldehyde to stabilize CA, and then deproteinized with 25.2 pl of ice-cold 70% perchloric acid. After centrifugation (16 000 g for 4 min) at room temperature, 140 pl of the supernatant was added to 21 pl of 100 mM thiourea. […] The derivatized samples were stored at -80?C until analysis (usually within 2 weeks). The 2-aminothia- zole product was isolated using a 100-mg Bond Elut SCX cation- exchange column (Varian), and then eluted, evaporated in vacuo in a Speed Vac and analysed by HPLC on an Alltech Econosphere C18 column with an absorbance detector operating at a wavelength of 254 nm.
# rat liver microsomes = test system: rat liver microsomes; parameters: method as in Yu and Waxman, 1996; settings: ref Yu and Waxman, 1996, cited from earlier work
# P450 2B1 = target: T1, P450 2B1 (Rattus norvegicus, UniProt P00176); settings: isolated liver microsomes, vs untreated
# T1 sequence (P00176 1-491): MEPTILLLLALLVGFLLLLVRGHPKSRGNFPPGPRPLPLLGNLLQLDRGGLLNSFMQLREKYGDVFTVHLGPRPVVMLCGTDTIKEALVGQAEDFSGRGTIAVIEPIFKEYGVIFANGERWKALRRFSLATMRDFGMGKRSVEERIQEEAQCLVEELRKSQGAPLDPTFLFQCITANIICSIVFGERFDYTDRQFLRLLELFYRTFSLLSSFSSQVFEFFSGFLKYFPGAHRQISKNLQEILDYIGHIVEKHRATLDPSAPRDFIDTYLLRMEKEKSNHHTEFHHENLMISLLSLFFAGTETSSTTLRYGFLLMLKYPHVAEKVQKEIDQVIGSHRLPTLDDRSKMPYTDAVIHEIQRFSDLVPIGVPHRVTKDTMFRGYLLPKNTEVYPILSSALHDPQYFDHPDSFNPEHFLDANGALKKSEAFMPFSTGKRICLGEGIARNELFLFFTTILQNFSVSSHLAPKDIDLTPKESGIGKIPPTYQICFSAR
# [2] = after IF 100 mg kg-1 i.v., DEX 50 mg kg-1 for 3 days
# [3] = after IF 100 mg kg-1 i.v., PB20 rats given MTP 5 min before IF
smiles,measurement,setting,value
"O=CCCl [CA, chloroacetaldehyde]",tmax,[1]; [2],10 min
same,tmax,[1]; [3],60 min
same,tmax,"[1]; after IF 100 mg kg-1 i.v., PB-pretreated rats (PB20 and PB80, Figure 1B and C)",4 min
same,Cmax,"[1]; plasma, IF 100 mg kg-1 i.v., PB80+TAO group (TAO 500 mg kg-1 2 h before IF), n=3",172 µM
"Cc1ccccc1C(OCCN(C)C)c1ccccc1 (stereo not drawn) [ORP, orphenadrine, reference compound]",increase in CA half-life,"[1]; male, Fischer 344, rat, in vivo, ip",approximately 30%
"O=P1(NCCCl)OCCCN1CCCl (stereo not drawn) [IF, ifosfamide]","extent of in vitro IF N-dechloroethylation, of total metabolism",rat liver microsomes; liver microsomes of DEX-treated male rats,24%
same,"extent of in vitro IF N-dechloroethylation, of total metabolism",rat liver microsomes; liver microsomes of male rats without DEX treatment,47%
"CCC1(c2ccccc2)C(=O)NC(=O)NC1=O [PB, phenobarbital]",induction of androstenedione 16β-hydroxylase activity,P450 2B1; PB20 regimen,fivefold
same,induction of androstenedione 16β-hydroxylase activity,P450 2B1; PB80 regimen,7.5 fold
"O=P1(NCCCl)OCCC(O)N1CCCl (stereo not drawn) [4-OH-IF, 4-hydroxy IF]",tmax,[1]; [2],4 min
same,tmax,[1]; [3],4 min
same,tmax (time to reach peak plasma concentration),"[1]; after IF 100 mg kg-1 i.v., untreated (UT) rats",4 to 10 min
